Measurements from patent US20110059909A1, “METHODS FOR TREATING INFLAMMATORY DISORDERS” (priority 2004, published 2011).
One block for each compound: values may come before it.

Assays:
Type in all cases: cell-based, rat
TNFα = TNFα mRNA in LPS/IFNγ-stimulated primary astrocytes
Experimental: A 20-mer antisense oligonucleotide of the following sequence (5′-CGCTTGAGCGCAGACATCTT-3′, SEQ ID NO:1) targeted against rat lactosylceramide synthase (GalT-2) were synthesized by Integrated DNA Technology. A scrambled oligonucleotide (5′-CTGATATCGTCGATATCGAT-3′, SEQ ID NO:2) was also synthesized and used as control. Cells were counted and plated a day before transfection and the following day were treated with Oligofectamine (Invitrogen)-oligonucleotide complexes (200 nM oligo) under serum free conditions. 48 h following transfection, the protein levels of GalT-2 were analyzed using polyclonal antibodies raised against rat GalT-2 (Abjent Inc., CA). The transfected cells were stimulated with LPS/IFNγ (1 μg/ml) and levels of nitric oxide were checked 24 h following stimulation. iNOS mRNA and protein levels were checked at 6 h and 24 h, respectively, following stimulation of transfected cells.
5 μg total RNA was treated with 2 U DNAse I (bovine pancreas, Sigma) for 15 min at room temperature in 18 μl volume containing 1×PCR buffer and 2 mM MgCl2. It was then inactivated by incubation with 2 μl of 25 mM EDTA at 65° C. for 15 min. 2 μl of random primers were added and annealed to the RNA according to the manufacturer's protocol. cDNA was synthesized in a 50 μl reaction containing 5 μg of total RNA and 50-100 U reverse transcriptase by incubating the tubes at 42° C. for 60 min. […]

NF-κB = NF-κB DNA binding, electrophoretic mobility shift assay
Experimental: Nuclear extracts from cells (1×10^7 cells) were prepared using a previously published method (Dignam et al., 1983) with slight modifications. Cells were harvested, washed twice with ice-cold TBS, and lysed in 400 μl of buffer A containing 10 mM KCl, 2 mM MgCl2, 0.5 mM dithiothreitol, protease inhibitor cocktail (Sigma), and 0.1% Nonidet P-40 in 10 mM HEPES, pH 7.9 for 10 min on ice. Following centrifugation at 5,000×g for 10 min, the pelleted nuclei were washed with buffer A without Nonidet P-40, and resuspended in 40 μl of buffer B containing 25% (v/v) glycerol, 0.42M NaCl, 1.5 mM MgCl2, 0.2 mM EDTA, 0.5 mM dithiothreitol, and Complete™ protease inhibitor cocktail (Roche) in 20 mM HEPES, pH 7.9 for 30 min on ice. The lysates were centrifuged at 15,000×g for 15 min and the supernatants containing the nuclear proteins were stored at −70° C. until use. Ten μg of nuclear proteins was used for the electrophoretic mobility shift assay for detection of NF-κB DNA binding activities. DNA-protein binding reactions were carried out at room temperature for 20 min in 10 mM Trizma base (pH 7.9), 50 mM NaCl, 5 mM MgCl2, 1 mM EDTA, 1 mM dithiothreitol, 1 μg poly (dI-dC), 5% (v/v) glycerol, and approximately 0.3 pmol of NF-κB probe (Santa Cruz Biotech) labeled with DIG-ddUTP using terminal deoxynucleotidyl transferase (Roche). […]

IκB = assay: Phosphorylated IκB immunoblot of cytoplasmic extract; settings: LPS/IFNγ
Experimental: For iNOS protein, the cells were washed with cold Tris buffered saline (TBS; 20 mM Trizma base, and 137 mM NaCl, pH 7.5), lysed in 1×SDS sample loading buffer (62.5 mM Trizma base, 2% w/v SDS, 10% glycerol), following sonication and centrifugation at 15,000×g for 5 min, the supernatant was used for the iNOS western immunoblot assay. The protein concentration of samples was determined with the detergent compatible protein assay reagent (Bio-Rad Laboratories, CA) using bovine serum albumin (BSA) as the standard. Sample was boiled for 3 min with 0.1 volumes of 10% β-mercaptoethanol and 0.5% bromophenol blue mix. Fifty μg of total cellular protein was resolved by electrophoresis on 8 or 12% polyacrylamide gels, electro-transferred to polyvinylidene difluoride (PVDF) filter and blocked with Tween 20 containing Tris-buffered saline (TBST; 10 mM Trizma base-pH 7.4, 1% Tween 20, and 150 mM NaCl) with 5% skim milk. […] The membranes were detected by autoradiography using ECL-plus (Amersham Pharmacia Biotech) after washing with TBST buffer.

Compound: AS GalT-2 oligonucleotides: 20-mer antisense oligonucleotide 5′-CGCTTGAGCGCAGACATCTT-3′, SEQ ID NO:1, against rat lactosylceramide synthase (GalT-2) (antisense CGCTTGAGCGCAGACATCTT; chemistry not given here)
TNFα mRNA expression (TNFα; LPS/IFNγ-stimulated astrocytes, 48 h after transfection): suppressed

Reversal of PDMP-mediated inhibition of NF-κB DNA binding activity (NF-κB; exogenous LacCer): reversed
Compound: Lactosylceramide [LacCer]
Reversal of AS-mediated inhibition of TNFα expression (TNFα; exogenous LacCer, LPS/IFNγ): reversed | Levels of phosphorylated IκB when LacCer was added to PDMP (IκB; PDMP plus LacCer): increased

Compound: CCCCCCCCCC(=O)NC(CN1CCOCC1)C(O)c1ccccc1.Cl [PDMP, D-threo-1-Phenyl-2-decanoylamino-3-morpholino-1-propanol.HCl]
NF-κB DNA binding activity (NF-κB; increasing doses of PDMP, LPS/IFNγ 45 min): inhibited | Phosphorylation of IκB (IκB; in the presence of PDMP): Decreased
